Measurements as given in PMC9296983, “Synthesis and HDAC inhibitory activity of pyrimidine-based hydroxamic acids” (Beilstein Journal of Organic Chemistry, 2022).

Tests used:
[1] = biological target: T1, HDAC4 (Homo sapiens, UniProt P56524); experiment: HDAC enzyme activity assay (fluorogenic, Boc-Lys(trifluoroacetyl)-AMC substrate), HDAC4; format: biochemical; conditions: recombinant HDAC4; BOC-LYS-(TFA)-AMC as substrate, 100 mM TRIS, 300 mM KCl, pH 8.0 buffer, 30 °C
T1 construct: made in house
T1 sequence (P56524 whole entry, species assumed): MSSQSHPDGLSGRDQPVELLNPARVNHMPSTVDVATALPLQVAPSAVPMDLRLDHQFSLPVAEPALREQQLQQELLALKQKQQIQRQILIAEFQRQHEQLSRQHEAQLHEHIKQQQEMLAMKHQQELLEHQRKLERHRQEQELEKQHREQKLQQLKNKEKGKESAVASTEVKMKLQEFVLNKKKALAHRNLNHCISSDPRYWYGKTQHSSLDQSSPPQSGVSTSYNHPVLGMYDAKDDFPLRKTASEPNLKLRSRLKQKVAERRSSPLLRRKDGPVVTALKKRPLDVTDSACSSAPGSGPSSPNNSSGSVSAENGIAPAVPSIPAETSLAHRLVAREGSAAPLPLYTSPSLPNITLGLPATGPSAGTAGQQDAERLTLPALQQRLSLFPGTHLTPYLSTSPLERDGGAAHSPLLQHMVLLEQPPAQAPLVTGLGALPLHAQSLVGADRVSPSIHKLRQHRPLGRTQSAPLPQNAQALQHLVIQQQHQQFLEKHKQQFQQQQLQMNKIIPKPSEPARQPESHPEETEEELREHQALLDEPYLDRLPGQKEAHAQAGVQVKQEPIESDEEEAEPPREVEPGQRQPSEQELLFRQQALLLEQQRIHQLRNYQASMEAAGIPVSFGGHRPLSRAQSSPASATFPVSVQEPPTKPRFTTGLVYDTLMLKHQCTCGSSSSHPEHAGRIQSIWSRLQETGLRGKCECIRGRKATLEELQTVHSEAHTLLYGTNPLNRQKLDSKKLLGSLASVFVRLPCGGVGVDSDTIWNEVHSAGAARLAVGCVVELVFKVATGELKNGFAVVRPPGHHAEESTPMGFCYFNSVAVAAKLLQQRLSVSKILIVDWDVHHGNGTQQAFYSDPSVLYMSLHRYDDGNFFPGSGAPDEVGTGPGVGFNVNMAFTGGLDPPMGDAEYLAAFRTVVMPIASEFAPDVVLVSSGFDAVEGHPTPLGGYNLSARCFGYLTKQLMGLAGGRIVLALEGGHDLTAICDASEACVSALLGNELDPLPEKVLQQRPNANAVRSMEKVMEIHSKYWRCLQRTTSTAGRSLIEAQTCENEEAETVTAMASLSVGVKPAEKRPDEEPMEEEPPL
Procedure: (§1) Compounds 12–18 and 25–31 were tested as inhibitors of HDAC4 and HDAC8 isoforms according to the procedures described previously. […]. […]
(§2) HDAC enzyme activity assay
Recombinant HDAC4 and 8 were produced as described in [3]. Serial dilutions of the inhibitor in the assay buffer (25 mM Tris -HCl, pH 8.0, 75 mM KCl, 0.001 % Pluronic F-127) were incubated with HDAC in a black 96-well microtiter half -area plate (Greiner) for 60 min at 30 °C. Subsequentl y the reaction was started by the addition of 20 μM Boc -Lys(trifluoroacetyl) -AMC (Bachem) as a substrate.
(§3) After incubation for 60 min at 30 °C, the reaction was stopped by the addition of 1.7 μM SATFMK.
(§4) The deacetylated substrate was transformed into a flu orescent product by the addition of 0.4 mg/m L trypsin (Applichem). The release of AMC was followed in a microplate reader (PheraStar Plus, BMG Labtech) at 450 nm (λ Ex = 350 nm) and correlated to enzyme activity. Dose–response curves were produced with GraphPad Prism and fitted to a four parameters logistic function to obtain IC50 values […]
(§5) in which EA is the enzyme activity at a given inhibitor concentration x; Emax and E0 are the enzyme activities determined at zero and complete inhibition, respectively; IC50 represents the inhibitor concentration at which half the enzyme molecules are inhibited; h is the slope of the curve. […]
(§6) (1 picture or pasted object on this page, not shown here)

[2] = biological target: T2, HDAC8 (Homo sapiens, UniProt Q9BY41); experiment: HDAC enzyme activity assay (fluorogenic, Boc-Lys(trifluoroacetyl)-AMC substrate), HDAC8; format: biochemical; conditions: recombinant HDAC8; BOC-LYS-(TFA)-AMC as substrate, 100 mM TRIS, 300 mM KCl, pH 8.0 buffer, 30 °C
T2 construct: made in house
T2 sequence (Q9BY41 1-377): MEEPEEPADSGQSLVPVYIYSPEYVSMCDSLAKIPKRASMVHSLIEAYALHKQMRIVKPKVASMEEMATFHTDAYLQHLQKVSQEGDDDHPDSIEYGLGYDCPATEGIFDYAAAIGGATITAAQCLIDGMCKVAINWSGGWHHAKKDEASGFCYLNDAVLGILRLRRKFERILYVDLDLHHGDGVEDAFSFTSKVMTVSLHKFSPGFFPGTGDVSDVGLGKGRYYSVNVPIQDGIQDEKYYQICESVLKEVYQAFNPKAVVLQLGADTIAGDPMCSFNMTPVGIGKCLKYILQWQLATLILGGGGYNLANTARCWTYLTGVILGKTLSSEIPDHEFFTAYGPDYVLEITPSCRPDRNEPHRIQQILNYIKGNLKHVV
Procedure: as §1, §2
Recombinant HDAC4 and 8 were produced as described in [3]. […]
HDAC in a black 96-well microtiter half -area plate (Greiner) for 60 min at 30 °C. Subsequentl y the reaction was started by the addition of 20 μM Boc -Lys(trifluoroacetyl) -AMC (Bachem) as a substrate.
as §3, §4, §5, §6

Compound: CSc1nc(C)cc(OCC(=O)NO)n1 [compound 12]
- IC50 [1]: 38 µM
- IC50 [2]: 28 µM
- melting point: 182 to 184 °C

Compound: CCSc1nc(C)cc(OCC(=O)NO)n1 [compound 13]
- IC50 [2]: 13 µM
- melting point: 175 to 176 °C

Compound: C=CCNc1nc(C)cc(OCC(=O)NO)n1 [compound 14]
- IC50 [2]: 15 µM
- melting point: 177 to 179 °C

Compound: Cc1cc(OCC(=O)NO)nc(NCc2ccccc2)n1 [compound 15]
- IC50 [2]: 14 µM
- melting point: 168 to 170 °C

Compound: Cc1cc(OCC(=O)NO)nc(N(C)C)n1 [compound 16]
- IC50 [2]: 35 µM
- melting point: 192 to 194 °C

Compound: Cc1cc(OCC(=O)NO)nc(N2CCCC2)n1 [compound 17]
- IC50 [2]: 13 µM
- melting point: 178 to 180 °C

Compound: Cc1cc(OCC(=O)NO)nc(O)n1 [compound 18]
- IC50 [2]: 60 µM
- melting point: 190 to 191 °C (dec.)

Compound: CSc1nc(C)cc(OCCCC(=O)NO)n1 [compound 25]
- IC50 [1]: > 50 µM
- IC50 [2]: 5.65 µM
- melting point: 150 to 151 °C

Compound: CSc1nc(C)cc(OCCCCCC(=O)NO)n1 [compound 26]
- IC50 [1]: > 50 µM
- IC50 [2]: 2.05 µM
- melting point: 112 to 113 °C

Compound: CCCc1c(C)nc(SC)nc1OCC(=O)NO [compound 27]
- IC50 [1]: 38 µM
- IC50 [2]: 1.4 µM
- melting point: 144 to 146 °C

Compound: CCCc1c(C)nc(SC)nc1OCCCC(=O)NO [compound 28]
- IC50 [1]: > 35 µM
- IC50 [2]: 2.4 µM
- melting point: 125 to 127 °C

Compound: CCCc1c(C)nc(SC)nc1OCCCCCC(=O)NO [compound 29, N-hydroxy-6-[6-methyl-2-(methylthio)-5-propylpyrimidin-4-yloxy]hexanamide]
- IC50 [1]: 16.6 µM
- IC50 [2]: 1.2 µM

Compound: CCCc1c(C)nc(SC)n(CC(=O)NO)c1=O [compound 30, N-Hydroxy-[6-methyl-2-(methylthio) -4-oxo-5-propylpyrimidin-3(4H)-yl]acetamide]
- IC50 [1]: > 35 µM
- IC50 [2]: > 35 µM
- melting point: 185 to 187 °C

Compound: CCCc1c(C)nc(SC)n(CCCC(=O)NO)c1=O [compound 31, N-Hydroxy-4-[6-methyl-2-(methylthio) -4-oxo-5-propylpyrimidin-3(4H)-yl]butanamide]
- IC50 [1]: > 35 µM
- IC50 [2]: > 35 µM
- melting point: 133 to 135 °C
